From PubChem BioAssay AID2610 (Broad Institute, 2010)
Records with an inconclusive call do not appear. Active and inactive are the calls of the source.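 How the source made its calls: active means EC50 no more than tenfold above the top concentration tested, with valid fit and all samples agreeing; inconclusive means flat fit at 30 to 70% inhibition, poor fit, or split samples; inactive means EC50 beyond tenfold the top concentration tested.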

System: BJeLR fibroblast viability, Alamar Blue fluorescence, 48 h
Experiment: BJeLR fibroblast growth inhibition, viability readout – cell-based, alamar blue fluorescence, 48 h, cherrypicked samples, dose response (AID 2610);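 further: BJ fibroblasts with hTERT plus SV40 large and small T and HRAS V12; EC50 for loss of viable cells so potency reflects cytotoxic compounds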

| SMILES | EC50 |
| --- | --- |
| O=C1N(c2ccccc2)C[C@@H]2C[C@@H](c3cc4ccccc4o3)N3CCC[C@@]123 | 610 nM |
| COc1ccc2nc(NC(=O)c3ccoc3C)sc2c1 | > 13300 nM (inactive) |
| O=C(CCCCCCCCCCC(=O)NCc1cccnc1)NCc1cccnc1 | > 13300 nM (inactive) |
| CC1(C)C[C@H]2C=C(C=O)[C@]3(C=O)C[C@]3(C)[C@H]2C1 | 580 nM |
| C[C@@H]1C=CC(=O)O[C@@H]1c1ccc(Cl)cc1 | 4190 nM |
| CC1CN(S(=O)(=O)c2ccc(C(=O)NCCCn3ccnc3)cc2)CC(C)O1 (stereo unspecified) | 436 nM |
| O=c1c2ccccc2nc(/C=C/c2ccc([N+](=O)[O-])o2)n1-c1ccc(O)cc1 | 3660 nM |
| COc1cccc(/C=C2\SC(=S)N(CCCC(=O)N(CCO)c3ccccc3)C2=O)c1 | 2530 nM |
| CCN1/C(=C/C(C)=C/c2sc3ccccc3[n+]2CC)Sc2ccccc21 | 152 nM |
| O=C(c1cccs1)c1no[n+]([O-])c1C(=O)c1cccs1 | 2990 nM |
| Cc1cc(C)c2c(CCl)cc(=O)oc2c1 | 116 nM |
| CC(C)Oc1ccccc1C1CC(=O)Nc2cc3c(cc21)OCCO3 (stereo unspecified) | 307 nM |
| CCCc1cc(=O)[nH]c(SCC(=O)c2c(N)n(CC(C)C)c(=O)n(C)c2=O)n1 | > 13300 nM (inactive) |
| O=C(c1cc([N+](=O)[O-])ccc1N1CCOCC1)N1CCN(c2ccccc2)CC1 | < 104 nM |
| N#CC(C#N)=NNc1ccc(-n2ccc(C(F)(F)F)n2)cc1 | 2650 nM |
| COc1ccc(N(C(=O)CCl)C(C(=O)NCCc2ccccc2)c2cccs2)cc1Cl (stereo unspecified) | < 50.2 nM |
| O=C(NCc1cccnc1)c1ccc(NC(=O)c2ccc([N+](=O)[O-])cc2)cc1 | 1420 nM |
| O=C(NCc1cccnc1)c1ccc(-c2cc3ccccc3oc2=O)cc1 | 1340 nM |
| CC[C@@]1(O)C(=O)OCc2c1cc1n(c2=O)Cc2cc3ccccc3nc2-1 | < 30.4 nM |
| CCCC(=O)OCCNc1cc(Sc2nccn2C)c2nonc2c1[N+](=O)[O-] | 2510 nM |
| COc1ccc2nc(C)cc(N/N=C/c3ccc(F)cc3)c2c1 | 292 nM |
| CC1=CC(=O)C=C(C)C1=NOc1ccccc1[N+](=O)[O-] | 670 nM |

| SMILES | EC50 |
| --- | --- |
| Cc1cccc2cc(C#N)c(SCC(=O)N3CC(=O)Nc4ccccc43)nc12 | < 104 nM |
| C/C(=N\Nc1nc2ccccc2[nH]1)c1ccccn1 | 165 nM |
| COc1ccccc1N(C(=O)CCl)c1cn(C(C)=O)c2ccccc12 | 717 nM |
| Cn1cnc(Sc2ncnc3nc[nH]c23)c1[N+](=O)[O-] | > 13300 nM (inactive) |
| COc1ccc2c(C)nc(Nc3nc(-c4ccccc4)cc(=O)[nH]3)nc2c1 | 1200 nM |
| CCN1CCN(CCNC(=O)c2ccc(/C=C3/Sc4ccccc4N(Cc4ccccc4C)C3=O)cc2)CC1 | > 13300 nM (inactive) |
| O=C(N/N=C/c1cccnc1)c1ccc(NC(=O)C(c2ccccc2)c2ccccc2)cc1 | 344 nM |
| O=S(=O)(c1ccc2c(c1)C(=NO)c1cc(S(=O)(=O)N3CCCCC3)ccc1-2)N1CCCCC1 | < 277 nM |
| CCCCC(=O)NC(c1ccc(C(C)C)cc1)c1ccc2cccnc2c1O (stereo unspecified) | 6420 nM |
| C=C1C(=O)O[C@@H]2C[C@@H](C)[C@H]3C=CC(=O)[C@]3(O)C[C@@H]12 | 4550 nM |
| CCN1C(=O)C(=Cc2cccc(OC)c2Oc2ccc([N+](=O)[O-])cc2[N+](=O)[O-])SC1=S | 1050 nM |
| COc1cc2c(cc1OC)C(c1cc(Br)ccc1F)N(C(=O)CCl)CC2 (stereo unspecified) | 1310 nM |
| COc1ccc(C(=O)Nc2nc3ccccc3s2)c(OC)c1 | > 13300 nM (inactive) |
| COC(=O)C[C@](O)(CCCC(C)(C)O)C(=O)O[C@@H]1C(OC)=C[C@]23CCCN2CCc2cc4c(cc2[C@H]13)OCO4 | < 34.7 nM |
| O=C(N/N=C(\c1ccccc1)c1cccnc1)c1cccc(F)c1 | 697 nM |
| O=c1c2ccccc2cnn1-c1nc2ccccc2[nH]1 | > 13300 nM (inactive) |
| COc1ccc(-c2coc3cc4oc(=O)c5ccccc5c4cc23)cc1F | < 104 nM |
| COc1ccc(/C=C2\CN(Cc3ccccc3)C/C(=C\c3ccc(OC)c(O)c3)C2=O)cc1O | 559 nM |
| CCC1=Nc2cc(C(=O)NCc3ccco3)ccc2Sc2ccc(C)cc21 | < 104 nM |
| C=C1C(=O)C=C2CN(C(=O)c3ccccc3)[C@@](Cc3ccc(F)cc3)(C(=O)OC)[C@@H]12 | 140 nM |
| O=C(Nc1nc2ccccc2[nH]1)c1ccccc1F | > 13300 nM (inactive) |
| COC(=O)C[C@]1(C(=O)OC)CN(C#N)N(c2ccc(Cl)cc2)C12c1ccccc1-c1ccccc12 | 762 nM |

| SMILES | EC50 |
| --- | --- |
| COc1cc(/C=C/[N+](=O)[O-])ccc1O | 6500 nM |
| C/C(=N\NC(=O)c1ccccc1F)c1ccccn1 | 4140 nM |
| FC(F)(F)c1nnc2c(Sc3ccc(Cl)cc3)nc3ccccc3n12 | 531 nM |
| COc1ccc(OC)c2c1C(=O)C(Cl)=C(Cl)C2=O | 2980 nM |
| N#CC1=C(N)Oc2cc(N)ccc2C1c1cccc(Br)c1 (stereo unspecified) | 318 nM |
| CC1CCCCC1N(C)C1CCN(C(=O)CNC(=O)/C=C/c2cccc(Cl)c2)CC1 (stereo unspecified) | 1290 nM |
| CCN1/C(=C/c2ccc3cc(C)ccc3[n+]2CC)Sc2ccc3sccc3c21 | < 104 nM |
| O=Cc1cc2ccccc2nc1SCc1ccc(Cl)cc1 | < 104 nM |
| COc1ccc(C(=O)N/N=C(\C)c2ccccn2)cc1OC | 795 nM |
| COc1ccc2c(c1)sc(N)[n+]2Cc1cc(C)cc2cccnc12 | 266 nM |
| CCOC(=O)/C(=C\c1ccc([N+](=O)[O-])cc1)C(=O)c1cc(C(C)=O)c(Nc2ccccc2)s1 | 958 nM |
| Cc1ccc(N=Cc2c(C)[nH]n(-c3nc4ccccc4[nH]3)c2=O)cc1 | > 13300 nM (inactive) |
| CCOc1ccc(Nc2nc(N)nc(CCl)n2)cc1 | 391 nM |
| O=C(N/N=C/c1cccs1)c1cc(-c2ccncc2)nc2ccccc12 | 113 nM |
| O=C(Sc1cccc2cccnc12)c1ccccc1Br | 337 nM |
| Clc1ccccc1Nc1nnc(-c2ccncc2)s1 | > 13300 nM (inactive) |
| CC1=CC(=O)C=C(C)C1=NOS(=O)(=O)c1ccccc1 | 3010 nM |
| Cc1nc2ccc(CN(C)c3ccc(C(=O)N[C@@H](CCC(=O)O)C(=O)O)s3)cc2c(=O)[nH]1 | > 13300 nM (inactive) |
| O=S1(=O)C=C(Sc2nc3ccccc3s2)c2ccccc21 | 316 nM |
| S=c1nc[nH]c2nc[nH]c12 | > 13300 nM (inactive) |
| Cc1cccc(Nc2nc(N)nc(CCl)n2)c1C | 468 nM |
| Cc1ccc(C2CC(c3cccs3)=NN2C(=O)CCl)cc1 (stereo unspecified) | 727 nM |

| SMILES | EC50 |
| --- | --- |
| CC(=O)c1ccc(Oc2cc(C)nc(-n3nc(C)cc3C)n2)cc1 | < 104 nM |
| CC1CC(C)CN(S(=O)(=O)c2ccc(C(=O)NCCCn3ccnc3)cc2)C1 (stereo unspecified) | 150 nM |
| CC(=O)c1ccccc1OCCOCCOCCOc1ccccc1C(C)=O | > 13300 nM (inactive) |
| CCCCCCCN(C(=O)CCl)c1cccc(C)c1 | 429 nM |
| Cc1occc1C(=O)N/N=C/c1ccc(-c2ccccc2)cc1 | > 13300 nM (inactive) |
| COc1ccc(C(C(=O)NC2CCCCC2)N(C(=O)CCl)c2ccc(C)cc2)cc1 (stereo unspecified) | 454 nM |
| Cc1ccc(-c2nn(CC(=O)NCc3cc(-c4nn(C)c(=O)c5ccccc45)ccc3C)c(=O)c3ccccc23)cc1 | > 13300 nM (inactive) |
| O=C(/C=C\c1ccco1)Nc1cc([N+](=O)[O-])ccc1F | 256 nM |
| S=C(N/N=C/c1ccc2ncccc2c1)Nc1ccccc1 | > 13300 nM (inactive) |
| CCc1ccc(/C=C2/SC(=S)N(CCC(=O)NCCCN3CCOCC3)C2=O)cc1 | 2420 nM |
| CC(C)[C@]12O[C@H]1[C@@H]1O[C@]13[C@]1(O[C@H]1C[C@H]1C4=C(CC[C@@]13C)C(=O)OC4)[C@@H]2O | < 104 nM |
| O=C1c2cccc3cc([N+](=O)[O-])cc(c23)C(=O)N1CCN1CCCC1 | 409 nM |
| C[C@@H]1O[C@@H](O[C@H]2C[C@@H](O)[C@]3(CO)[C@H]4[C@H](O)C[C@]5(C)[C@@H](C6COC(=O)C6)CC[C@]5(O)[C@@H]4CC[C@]3(O)C2)[C@H](O)[C@H](O)[C@H]1O (stereo partly specified) | 802 nM |
| O=[N+]([O-])c1cc(Br)c(Nc2ccccc2)c([N+](=O)[O-])c1 | 537 nM |
| O=C(CCl)N=c1sccn1Cc1ccccc1Cl | < 88.2 nM |
| COc1ccc(N/N=C(/N=Nc2nc(C)cc(=O)[nH]2)c2ccccc2)cc1 | 446 nM |
| COc1ccc(S(=O)(=O)N2c3ccc(F)cc3CCC2C)cc1 (stereo unspecified) | < 104 nM |
| O=C(CCl)Nc1cc(SCC(O)CO)cc([N+](=O)[O-])c1 (stereo unspecified) | 997 nM |
| CC(Oc1ccc(Cl)cc1Cl)c1nc(-c2ccc(NC(=O)c3cccnc3)cc2)no1 (stereo unspecified) | 1580 nM |
| COc1cc(SC)ccc1C(=O)Nc1nc2ccccc2[nH]1 | > 13300 nM (inactive) |
| C/C(=N\Nc1ncnc2sc(C)c(C)c12)c1ccccn1 | < 104 nM |
| Cn1ncc2c(O/N=C(\N)c3ccc(C(C)(C)C)cc3)ncnc21 | 2340 nM |

| SMILES | EC50 |
| --- | --- |
| CCCOc1ccc(C(=O)C(CCC(CNCC)C(=O)c2ccc(OCCC)cc2)CNCC)cc1 (stereo unspecified) | 638 nM |
| CC[C@@]1(O)C(=O)OCc2c1cc1n(c2=O)Cc2cc3c(CN(C)C)c(O)ccc3nc2-1 | < 39.2 nM |
| Cc1cccnc1Nc1nc(-c2ccccn2)cs1 | < 142 nM |
| COc1cc(/C=C/c2ccc3cccc(O)c3n2)cc(OC)c1OC | 3370 nM |
| CN1C/C(=C/c2ccncc2)C(=O)/C(=C/c2ccncc2)C1 | 555 nM |
| Cc1ccc(-c2nnc(SCC(=O)Nc3ccccc3F)o2)cc1 | > 13300 nM (inactive) |
| CCN(CC)c1ccc(/C=N/NC(=O)c2ccc3nc[nH]c3c2)c(O)c1 | 1530 nM |
| Nc1nc(CCl)nc(N(c2ccccc2)c2ccccc2)n1 | 121 nM |
| CC(=O)Nc1ccc(/C=N/Nc2nc3ccccc3[nH]2)cc1 | > 13300 nM (inactive) |
| COc1cc([C@H]2c3[nH]c4ccccc4c3C[C@H]3C(=O)N4[C@@H](c5cc(OC)c(OC)c(OC)c5)c5[nH]c6ccccc6c5C[C@H]4C(=O)N23)cc(OC)c1OC | > 13300 nM (inactive) |
| C/C(=N\Nc1ncc(Cl)cc1Cl)c1ccccn1 | < 22.2 nM |
| O=C(CCl)N(CCCNC(=O)C(F)(F)F)c1ccc([N+](=O)[O-])cc1 | 424 nM |
| N#Cc1c(NC(=O)/C=C/c2ccco2)sc2c1CCCC2 | < 104 nM |
| CCOc1ccc(CC(=O)Nc2ccc(NC(=O)c3ccco3)cc2)cc1OCC | 2060 nM |
| COc1cc(C2CC(c3cccs3)=NN2C(=O)CCl)ccc1OC(F)F (stereo unspecified) | 271 nM |
| COc1ccc(F)cc1CN1CCN(C(=O)CCC(=O)Nc2nnc(CC(C)C)s2)CC1 | > 13300 nM (inactive) |
| Cc1ccc2[nH]c3c(c2c1)CCCC3NC(=O)CCl (stereo unspecified) | 2270 nM |
| Cc1ccc(NC(=O)[C@H](Cc2c[nH]c3ccccc23)NC(=O)[C@@H]2Cc3ccccc3CN2)c(C)c1 | > 13300 nM (inactive) |
